Structures can show the parent of a compound that is named as a salt.
Key:
[1] = target: T1, LAT1 (Homo sapiens, UniProt Q01650); assay: LAT1 inhibiting activity: inhibition of 14C-L-leucine uptake in T24 cells; assay type: cell-based; conditions: 1 μM 14C-Leu, 1-minute uptake
T1 construct: Using human bladder cancer cell strain T24 cells, in which LAT1 only was strongly expressed; endogenous in cells; host or cells: T24 human bladder cancer cells
Procedure: 1) To each of the weighed test compounds, DMSO was added to prepare a 100 mM solution or suspension as a DMSO stock. In an assay, the stock was diluted 1,000 fold with a buffer described below. The final concentration of the test compound was 100 μM and the final concentration of DMSO was 0.1%.
2) The LAT1 inhibiting activity of the test compound was determined in the following manner. Using human bladder cancer cell strain T24 cells, in which LAT1 only was strongly expressed, inhibiting activity of each test compound against “^14C”-L-leucine uptake was determined as the LAT1 inhibiting activity.
T24 cells in a logarithmic growth-phase were transferred to a 24-well plate at 0.8×10^5 cell/well and cultured at 37° C. for 2 days. After the plate was incubated at 37° C. on a water bath for 5 minutes, the fixed cells were washed three times with a Hank's balanced salt solution (HBSS: 25 mM HEPES, 125 mM choline chloride, 5.6 mM glucose, 4.8 mM KCl, 1.2 mM MgSO4, 1.2 mM KH2PO4, 1.3 mM CaCl2, pH 7.4) warmed to 37° C., not containing Na^+, to which 500 μl of HBSS (37° C.) was added. Then, further incubation was carried out for 7 minutes.
After the incubation was finished, a supernatant was replaced with HBSS containing 1 μM ^14C-Leu and 100 μM test compound (37° C.), followed by 1-minute uptake. Then, the cells were washed three times with HBSS of 4° C. The washed cells were added with 500 μl of 0.1 N NaOH to dissolve the cells for 20 minutes. The cell solution was transferred to a vial, to which 3 ml of a scintillator was added to measure the radioactivity with a liquid scintillation counter.
Inhibition % was calculated by the following formula. Inhibition %=100−(radioactivity of the well added with the test compound)/(radioactivity of the well not added with the test compound)×100

T1 sequence (Q01650 whole entry): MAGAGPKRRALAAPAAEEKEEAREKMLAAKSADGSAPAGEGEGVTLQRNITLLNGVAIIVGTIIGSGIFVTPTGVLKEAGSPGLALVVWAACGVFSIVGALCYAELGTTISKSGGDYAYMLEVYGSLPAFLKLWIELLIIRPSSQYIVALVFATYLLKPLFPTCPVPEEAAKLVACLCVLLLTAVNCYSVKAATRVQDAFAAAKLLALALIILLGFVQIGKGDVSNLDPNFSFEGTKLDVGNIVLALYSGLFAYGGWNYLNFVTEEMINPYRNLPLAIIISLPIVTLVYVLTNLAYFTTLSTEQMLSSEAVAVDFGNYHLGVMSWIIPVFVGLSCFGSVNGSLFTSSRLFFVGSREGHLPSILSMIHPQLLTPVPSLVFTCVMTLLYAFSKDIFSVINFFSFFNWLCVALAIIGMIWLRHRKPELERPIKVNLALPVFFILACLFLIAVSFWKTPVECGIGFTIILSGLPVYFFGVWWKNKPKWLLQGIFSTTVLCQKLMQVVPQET
T1 sequence (P08195 102-630 partner): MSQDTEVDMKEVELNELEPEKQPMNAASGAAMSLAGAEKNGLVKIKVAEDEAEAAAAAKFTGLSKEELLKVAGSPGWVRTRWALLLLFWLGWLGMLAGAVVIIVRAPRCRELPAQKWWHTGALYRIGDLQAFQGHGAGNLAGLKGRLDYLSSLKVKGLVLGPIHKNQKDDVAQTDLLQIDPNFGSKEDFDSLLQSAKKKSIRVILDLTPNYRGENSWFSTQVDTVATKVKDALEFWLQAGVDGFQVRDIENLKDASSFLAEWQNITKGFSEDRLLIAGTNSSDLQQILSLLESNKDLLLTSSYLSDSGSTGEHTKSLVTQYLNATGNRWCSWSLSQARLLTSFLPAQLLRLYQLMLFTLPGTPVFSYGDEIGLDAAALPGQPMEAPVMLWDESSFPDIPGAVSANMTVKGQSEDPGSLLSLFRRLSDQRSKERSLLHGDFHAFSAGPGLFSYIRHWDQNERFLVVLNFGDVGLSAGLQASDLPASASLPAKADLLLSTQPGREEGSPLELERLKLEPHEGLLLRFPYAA

| Structure (SMILES) | IC50 [1] | melting point |
| --- | --- | --- |
| COc1ccc(-c2nc3cc(C)cc(COc4c(Cl)cc(C[C@H](N)C(=O)O)cc4Cl)c3o2)cc1 [Example 35] | 0.28 µM | 210 to 213 °C (dec.) |
| COC(=O)c1c(-c2ccccc2)oc2c(COc3c(Cl)cc(C[C@H](N)C(=O)O)cc3Cl)cccc2c1=O (as salt: HCl) [Example 87] |  | 222.5 to 224 °C (dec.) |
| N[C@@H](Cc1cc(I)c(OCCCBr)c(I)c1)C(=O)O [Example 1, O-(3-bromopropyl)-3,5-diiodo-L-tyrosine] |  | 213 to 215 °C (dec.) |
| CN(C)c1ccc(-c2cccc(Oc3cccc(C[C@H](N)C(=O)O)c3)c2)cn1 [Example 97] | 0.01 µM | 214 to 218 °C (dec.) |
| N[C@@H](Cc1cc(Cl)c(OCc2cccc3nc(-c4ccncc4)oc23)c(Cl)c1)C(=O)O [Example 33] | 0.15 µM | 214 to 218 °C (dec.) |
| Cc1c(-c2ccccc2)oc2c(CNc3c(Cl)cc(C[C@H](N)C(=O)O)cc3Cl)cccc2c1=O [Example 91] | 0.1 µM | 207 to 210 °C (dec.) |
| N[C@@H](Cc1cccc(Oc2ccc3ccccc3c2)c1)C(=O)O [Example 49-2), 3-(2-naphthyloxy)-L-phenylalanine] | 0.1 µM | 210 to 214 °C (dec.) |
| N[C@@H](Cc1cccc(Oc2ccc3[nH]ccc3c2)c1)C(=O)O [Example 52] | 0.5 µM | 205 to 210 °C (dec.) |
| N[C@@H](Cc1cc(Cl)c(OCc2cccc3c(=O)c(CO)c(-c4ccccc4)oc23)c(Cl)c1)C(=O)O [Example 81] | 0.2 µM | 218 to 221 °C (dec.) |
| N[C@@H](Cc1cccc(Oc2cccc(-c3ccncc3)c2)c1)C(=O)O [Example 96] | 0.84 µM | 182 to 185 °C (dec.) |
| N[C@@H](Cc1cc(Cl)c(OCc2cccc3nc(Cc4ccccc4)oc23)c(Cl)c1)C(=O)O [Example 63] | 0.94 µM | 198 to 200.5 °C (dec.) |
| N[C@@H](Cc1cccc(Oc2cccc(-c3cnc4ccccc4c3)c2)c1)C(=O)O [Example 106] | 0.83 µM | 185 to 190 °C (dec.) |
| N[C@@H](Cc1cc(Cl)c(OCc2cccc3nc4n(c23)Cc2ccccc2-4)c(Cl)c1)C(=O)O [Example 73] | 0.11 µM | 200 to 208 °C (dec.) |
| N[C@@H](Cc1cc(Cl)c(OCc2cccc3nc(-c4ccco4)oc23)c(Cl)c1)C(=O)O [Example 34] | 0.29 µM | 227 to 230 °C (dec.) |
| N[C@@H](Cc1cccc(Oc2ccc3cc(O)ccc3c2)c1)C(=O)O [Example 56, 3-[2-(6-hydroxy)naphthyloxy]-L-phenylalanine] | 0.26 µM | 210 to 220 °C (dec.) |
| N[C@@H](Cc1cc(Cl)c(OCc2cccc3nc(-c4ccc(O)cc4)oc23)c(Cl)c1)C(=O)O [Example 22] | 0.2 µM | 239 to 241 °C (dec.) |
| CN(C)c1ccc(-c2cccc(Oc3cccc(C[C@H](N)C(=O)O)c3)c2)cn1 [Example 98] | 0.2 µM |  |
| CN(C)c1ccc(-c2nc3cccc(COc4c(Cl)cc(C[C@H](N)C(=O)O)cc4Cl)c3o2)cn1 [Example 65] | 0.33 µM | 233 to 236 °C (dec.) |
| N[C@@H](Cc1cc(Cl)c(OCc2cccc3nc(-c4ccc(Cl)cc4)oc23)c(Cl)c1)C(=O)O [Example 30] | 0.3 µM | 209 to 211 °C |
| Cc1c(-c2ccccc2)oc2c(COc3c(Cl)cc(C[C@H](N)C(=O)O)cc3Cl)cccc2c1=O [Example 39] | 0.23 µM | 202 to 204 °C (dec.) |
| CN(C)c1ccc(-c2cccc(Oc3cccc(C[C@H](N)C(=O)O)c3)c2)cn1 (as salt: hydrochloride) [Example 98] |  | 223 to 228 °C (dec.) |
| N[C@@H](Cc1cc(Cl)c(OCc2cccc3nc(-c4cccc(O)c4)oc23)c(Cl)c1)C(=O)O [Example 48] | 0.3 µM |  |
| Cc1ccc(-c2nc3cccc(COc4c(Cl)cc(C[C@H](N)C(=O)O)cc4Cl)c3o2)cc1 [Example 36] | 0.2 µM | 221 to 231 °C (dec.) |

| Structure (SMILES) | IC50 [1] | melting point |
| --- | --- | --- |
| N[C@@H](Cc1cccc(-c2cccc(-c3ccccc3)c2)c1)C(=O)O [Example 112] | 0.81 µM | 199 to 201 °C (dec.) |
| N[C@@H](Cc1cc(Cl)c(OCc2cccc3oc(-c4ccccc4)nc23)c(Cl)c1)C(=O)O [Example 38] | 0.33 µM | 219 to 223 °C (dec.) |
| COc1ccc2cc(Oc3cccc(C[C@H](N)C(=O)O)c3)ccc2c1 [Example 55, 3-[2-(6-methoxy)naphthyloxy]-L-phenylalanine] | 0.29 µM | 202 to 206 °C (dec.) |
| COC(=O)c1c(-c2ccccc2)oc2c(COc3c(Cl)cc(C[C@H](N)C(=O)O)cc3Cl)cccc2c1=O [Example 87] | 0.23 µM |  |
| N[C@@H](Cc1cccc(Oc2cccc(-c3ccc(Cl)cc3)c2)c1)C(=O)O [Example 103] | 0.06 µM | 204 to 208 °C (dec.) |
| Cc1cc(C[C@H](N)C(=O)O)cc(C)c1OCc1cccc2nc(-c3ccccc3)oc12 [Example 90] | 0.11 µM | 203 to 210 °C (dec.) |
| CN(C)c1ccc(-c2nc3cccc(COc4c(Cl)cc(C[C@H](N)C(=O)O)cc4Cl)c3o2)cc1 [Example 37] | 0.13 µM | 219 to 222 °C (dec.) |
| N[C@@H](Cc1cc(Cl)c(OCc2cccc3nc(-c4ccc(F)cc4)oc23)c(Cl)c1)C(=O)O [Example 32] | 0.24 µM | 233 to 236 °C (dec.) |
| N[C@@H](Cc1cccc(Oc2cccc(-c3ccccn3)c2)c1)C(=O)O [Example 99] | 0.52 µM | 187 to 192 °C (dec.) |
| CN(C)c1ncc(-c2cccc(Oc3cccc(C[C@H](N)C(=O)O)c3)c2)cn1 [Example 108] | 0.67 µM | 191 to 194 °C (dec.) |
| CN(C)c1ncc(-c2nc3cccc(COc4c(Cl)cc(C[C@H](N)C(=O)O)cc4Cl)c3o2)cn1 [Example 70] | 0.29 µM | 218 to 221 °C (dec.) |
| N[C@@H](Cc1cccc(OCc2ccc3ccccc3c2)c1)C(=O)O [Example 58, 3-[(2-naphthyl)methoxy]-L-phenylalanine] | 0.49 µM | 201 to 204 °C (dec.) |
| NC(Cc1cc(Cl)c(OCc2cccc3c2OC(c2ccccc2)CN3)c(Cl)c1)C(=O)O (stereo not drawn) [Example 71] | 0.37 µM | 199 to 204 °C (dec.) |
| COc1ncc(-c2nc3cccc(COc4c(Cl)cc(C[C@H](N)C(=O)O)cc4Cl)c3s2)c(OC)n1 [Example 74] | 0.95 µM | 210 to 215 °C (dec.) |
| N[C@@H](Cc1cccc(Oc2cccc(-c3cccnc3)c2)c1)C(=O)O [Example 100] | 0.22 µM | 200 to 204 °C (dec.) |
| CN(CCO)c1ncc(-c2nc3cccc(COc4c(Cl)cc(C[C@H](N)C(=O)O)cc4Cl)c3o2)cn1 [Example 72] | 0.36 µM | 212 to 215 °C (dec.) |
| N[C@@H](Cc1cc(Cl)c(OCc2cccc3nc(-c4ccccc4)[nH]c23)c(Cl)c1)C(=O)O [Example 85] | 0.27 µM | 183 to 187 °C (dec.) |
| N[C@@H](Cc1cccc(Oc2cccc3ccccc23)c1)C(=O)O [Example 54] | 0.71 µM | 180 to 186 °C (dec.) |
| N[C@@H](Cc1cccc(Oc2cccc(-c3ccccc3)c2)c1)C(=O)O [Example 53] | 0.12 µM | 203 to 206 °C (dec.) |
| N[C@@H](Cc1cccc(Oc2ccc(-c3ccccc3)cc2)c1)C(=O)O [Example 93] | 0.17 µM | 214 to 217 °C (dec.) |
| N[C@@H](Cc1cccc(Oc2cccc(-c3cccc(Cl)c3)c2)c1)C(=O)O [Example 102] | 0.06 µM | 193 to 198 °C (dec.) |
| Nc1c(-c2ccccc2)oc2c(COc3c(Cl)cc(C[C@H](N)C(=O)O)cc3Cl)cccc2c1=O [Example 83] | 0.55 µM | 226 to 230 °C (dec.) |

— patent publication US7345068B2, “Aromatic amino acid derivatives and medicinal compositions” (priority 2002, dated 2008)
